Entries after “also recorded” stand apart in the source; their conditions may differ. Read-outs that look alike come from different tables or passages of the source.
Tests used:
Solubility = type: physicochemical
[1] = Clinical pharmacokinetics: absorption, distribution, metabolism, elimination (incl. radiolabel study); type: in vivo, human; settings: for half-life: plasma, oral
Experimental: Based on urinary excretion and biotransformation products eliminated in feces, the oral absorption of drug-related material following administration of a single 75 mg solution dose was estimated to be at least 52%.
Metabolites due to glucuronidation and oxidation were also detected.

[2] = Food effect open-label randomized crossover study; type: in vivo, human; settings: standard high-fat breakfast
Text: The calcium content of this meal may have also contributed to this decrease in exposure.

[3] = Pharmacokinetics by race and gender; type: in vivo, human
OATP1B1 [4] = biological target: T1, OATP1B1 (Homo sapiens, UniProt Q9Y6L6); test: In vitro OATP1B1 inhibition; type: in vitro ADME
UGT1A1 [5] = biological target: T2, UGT1A1 (Homo sapiens, UniProt P22309); test: In vitro UGT inhibition; type: in vitro ADME
Text: (§1) Monitor patients closely for signs or symptoms of excessive exposure to these drugs when concomitantly administered with Promacta®.

UGT1A3 [6] = biological target: T3, UGT1A3 (Homo sapiens, UniProt P35503); test: In vitro UGT inhibition; type: in vitro ADME
Text: as §1

UGT1A4 = UGT1A4 (Homo sapiens, UniProt P22310); test: In vitro UGT inhibition; type: in vitro ADME
Text: as §1

UGT1A6 = UGT1A6 (Homo sapiens, UniProt P19224); test: In vitro UGT inhibition; type: in vitro ADME
Text: as §1

UGT1A9 = UGT1A9 (Homo sapiens, UniProt O60656); test: In vitro UGT inhibition; type: in vitro ADME
Text: as §1

UGT2B15 = UGT2B15 (Homo sapiens, UniProt P54855); test: In vitro UGT inhibition; type: in vitro ADME
Text: as §1

UGT2B7 = UGT2B7 (Homo sapiens, UniProt P16662); test: In vitro UGT inhibition; type: in vitro ADME
Text: as §1

CYP2C8 [7] = biological target: T4, CYP2C8 (Homo sapiens, UniProt P10632); test: In vitro CYP inhibition (paclitaxel probe); type: in vitro ADME; settings: paclitaxel probe substrate
Text: (§2) Probe substrates for CYP2C8 were not evaluated in this study.

CYP2C9 = CYP2C9 (Homo sapiens, UniProt P11712); test: In vitro CYP inhibition (diclofenac probe); type: in vitro ADME; settings: diclofenac probe substrate
Text: as §2

CYP1A2 = CYP1A2 (Homo sapiens, UniProt P05177); test: In vitro oxidative metabolism; type: in vitro ADME
CYP2C8 [8] = biological target: T4, CYP2C8; test: In vitro oxidative metabolism; type: in vitro ADME
UGT1A1 [9] = biological target: T2, UGT1A1; test: In vitro glucuronidation; type: in vitro ADME
UGT1A3 [10] = biological target: T3, UGT1A3; test: In vitro glucuronidation; type: in vitro ADME
human plasma proteins = test: In vitro plasma protein binding; type: in vitro ADME
p-glycoprotein (Pgp) = p-glycoprotein (Pgp) (Homo sapiens, UniProt P08183); test: Transporter substrate assessment; type: in vitro ADME
OATP1B1 [11] = biological target: T1, OATP1B1; test: Transporter substrate assessment; type: in vitro ADME
female rats = test: Early embryonic development study; type: in vivo, rat; settings: highest dose, 7 times human clinical exposure (AUC); maternally toxic
pregnant rats (F0) = test: Pre- and post-natal developmental toxicity study; type: in vivo, rat
rats [12] = test: Platelet production in animals; type: in vivo, rat
mice [13] = test: Platelet production in animals; type: in vivo, mouse
dogs [14] = test: Platelet production in animals; type: in vivo, dog
rats [15] = test: In vivo micronucleus assay; settings: rat micronucleus, 11 times human clinical exposure (Cmax)
rats [16] = test: In vivo unscheduled DNA synthesis assay; settings: rat unscheduled DNA synthesis, 11 times human clinical exposure (Cmax)
mouse lymphoma = test: In vitro mouse lymphoma assay; type: cell-based
rats [17] = test: Fertility studies in rats; type: in vivo, rat
[18] = In vitro phototoxicity and photoclastogenicity; type: cell-based
mice [19] = test: In vivo cutaneous phototoxicity; set-up: species or system mouse; settings: up to 11 times human clinical exposure (AUC)
rabbits = test: Toxicology in rabbits; type: in vivo, rabbit; settings: 1.4 times human clinical exposure (AUC)
pregnant rats = settings: rat, in vivo
pregnant rabbits = settings: oral 30, 80, or 150 mg/kg/day (0.1, 0.3, 0.6 times human clinical exposure, AUC)
rats [20] = settings: rat, in vivo
mice [21] = settings: mouse, in vivo
mice [22] = settings: mouse, in vivo; remark: listed apart in the source
rats [23] = settings: rat, in vivo; remark: listed apart in the source
dogs [24] = settings: dog, in vivo
bacterial = test: Bacterial mutation assay
mice [25] = test: 2-year oral carcinogenicity study in mice; settings: 2-year study, lowest dose (25 mg/kg/day)
healthy adult subjects = test: QT/QTc double-blind placebo- and positive-controlled crossover trial; type: in vivo, human; settings: 400 mg, single oral dose
Experimental: The effects of Promacta® at doses up to 150 mg daily for 5 days (supratherapeutic doses) on the QT/QTc interval was evaluated in a double-blind, randomized, placebo- and positive-controlled (moxifloxacin 400 mg, single oral dose) crossover trial in healthy adult subjects.

T4 sequence (P10632 whole entry): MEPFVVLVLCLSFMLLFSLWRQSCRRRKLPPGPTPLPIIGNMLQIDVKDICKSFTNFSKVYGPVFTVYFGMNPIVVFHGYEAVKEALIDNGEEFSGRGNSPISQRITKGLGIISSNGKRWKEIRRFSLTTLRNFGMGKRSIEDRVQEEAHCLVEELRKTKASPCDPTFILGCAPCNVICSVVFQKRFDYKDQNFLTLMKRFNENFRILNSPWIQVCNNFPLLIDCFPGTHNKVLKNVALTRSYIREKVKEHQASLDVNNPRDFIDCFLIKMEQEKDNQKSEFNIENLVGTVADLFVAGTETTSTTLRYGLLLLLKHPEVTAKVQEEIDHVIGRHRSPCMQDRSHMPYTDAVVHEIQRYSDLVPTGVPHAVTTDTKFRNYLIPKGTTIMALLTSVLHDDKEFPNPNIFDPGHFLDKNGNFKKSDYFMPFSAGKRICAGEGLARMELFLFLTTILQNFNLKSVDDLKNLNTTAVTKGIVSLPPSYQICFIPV
Chain of CYP1A2 (P05177 whole entry): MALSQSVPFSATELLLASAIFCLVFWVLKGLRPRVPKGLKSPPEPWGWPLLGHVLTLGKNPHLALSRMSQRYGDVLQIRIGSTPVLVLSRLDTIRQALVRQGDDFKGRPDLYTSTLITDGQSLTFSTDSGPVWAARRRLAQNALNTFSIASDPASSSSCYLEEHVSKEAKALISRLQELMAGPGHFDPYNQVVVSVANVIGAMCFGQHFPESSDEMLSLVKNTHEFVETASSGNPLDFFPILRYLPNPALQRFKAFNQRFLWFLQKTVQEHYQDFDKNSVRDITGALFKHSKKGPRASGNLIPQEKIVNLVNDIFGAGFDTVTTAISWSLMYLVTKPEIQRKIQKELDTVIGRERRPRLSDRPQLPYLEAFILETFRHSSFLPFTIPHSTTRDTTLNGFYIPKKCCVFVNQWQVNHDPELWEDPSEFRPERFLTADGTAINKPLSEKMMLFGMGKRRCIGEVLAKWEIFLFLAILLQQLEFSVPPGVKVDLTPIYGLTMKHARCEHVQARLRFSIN
T2 sequence (P22309 26-533): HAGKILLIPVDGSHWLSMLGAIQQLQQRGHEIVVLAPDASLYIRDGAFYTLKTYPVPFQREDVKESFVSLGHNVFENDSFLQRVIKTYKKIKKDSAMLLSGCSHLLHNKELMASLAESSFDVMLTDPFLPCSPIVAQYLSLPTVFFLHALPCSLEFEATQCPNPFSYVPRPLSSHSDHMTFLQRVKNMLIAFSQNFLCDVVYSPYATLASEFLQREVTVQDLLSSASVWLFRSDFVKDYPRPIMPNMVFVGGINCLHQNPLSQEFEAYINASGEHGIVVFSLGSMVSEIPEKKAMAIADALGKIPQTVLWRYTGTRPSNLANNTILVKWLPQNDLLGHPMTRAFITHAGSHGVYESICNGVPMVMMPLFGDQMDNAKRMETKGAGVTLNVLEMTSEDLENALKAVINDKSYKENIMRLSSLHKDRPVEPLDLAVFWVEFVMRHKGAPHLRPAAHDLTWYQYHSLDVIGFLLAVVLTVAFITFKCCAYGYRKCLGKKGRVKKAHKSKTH
T3 sequence (P35503 29-534): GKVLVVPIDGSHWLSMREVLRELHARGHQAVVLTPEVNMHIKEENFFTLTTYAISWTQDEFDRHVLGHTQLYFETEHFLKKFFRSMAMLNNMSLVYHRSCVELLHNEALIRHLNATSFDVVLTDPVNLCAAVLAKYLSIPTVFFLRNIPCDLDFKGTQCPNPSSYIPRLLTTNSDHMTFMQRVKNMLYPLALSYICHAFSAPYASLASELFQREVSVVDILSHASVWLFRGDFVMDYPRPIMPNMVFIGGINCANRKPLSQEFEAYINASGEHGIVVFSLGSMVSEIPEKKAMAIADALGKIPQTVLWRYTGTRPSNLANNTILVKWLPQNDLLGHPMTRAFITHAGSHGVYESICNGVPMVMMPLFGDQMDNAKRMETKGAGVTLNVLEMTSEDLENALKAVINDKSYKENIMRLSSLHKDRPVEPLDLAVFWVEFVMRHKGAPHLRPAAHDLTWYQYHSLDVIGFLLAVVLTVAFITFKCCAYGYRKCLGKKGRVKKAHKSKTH
T1 sequence (Q9Y6L6 whole entry): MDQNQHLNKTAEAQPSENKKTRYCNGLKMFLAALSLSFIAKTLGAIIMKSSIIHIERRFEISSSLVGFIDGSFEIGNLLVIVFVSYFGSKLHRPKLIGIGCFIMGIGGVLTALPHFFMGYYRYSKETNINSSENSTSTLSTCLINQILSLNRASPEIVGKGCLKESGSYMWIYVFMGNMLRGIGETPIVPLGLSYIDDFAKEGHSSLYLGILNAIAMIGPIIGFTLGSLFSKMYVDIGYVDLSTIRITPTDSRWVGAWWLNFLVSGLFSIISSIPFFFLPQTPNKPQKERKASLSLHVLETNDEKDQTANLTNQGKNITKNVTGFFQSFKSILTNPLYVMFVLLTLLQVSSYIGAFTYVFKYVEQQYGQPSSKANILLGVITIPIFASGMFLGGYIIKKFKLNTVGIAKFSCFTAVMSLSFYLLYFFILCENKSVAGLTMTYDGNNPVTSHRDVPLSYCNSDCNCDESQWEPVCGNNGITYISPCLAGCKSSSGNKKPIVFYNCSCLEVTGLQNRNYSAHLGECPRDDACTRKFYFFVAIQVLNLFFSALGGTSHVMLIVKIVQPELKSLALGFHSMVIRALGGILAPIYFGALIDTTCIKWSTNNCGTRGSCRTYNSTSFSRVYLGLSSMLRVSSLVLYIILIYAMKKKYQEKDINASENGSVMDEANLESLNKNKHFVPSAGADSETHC
Chain of UGT2B15 (P54855 24-530): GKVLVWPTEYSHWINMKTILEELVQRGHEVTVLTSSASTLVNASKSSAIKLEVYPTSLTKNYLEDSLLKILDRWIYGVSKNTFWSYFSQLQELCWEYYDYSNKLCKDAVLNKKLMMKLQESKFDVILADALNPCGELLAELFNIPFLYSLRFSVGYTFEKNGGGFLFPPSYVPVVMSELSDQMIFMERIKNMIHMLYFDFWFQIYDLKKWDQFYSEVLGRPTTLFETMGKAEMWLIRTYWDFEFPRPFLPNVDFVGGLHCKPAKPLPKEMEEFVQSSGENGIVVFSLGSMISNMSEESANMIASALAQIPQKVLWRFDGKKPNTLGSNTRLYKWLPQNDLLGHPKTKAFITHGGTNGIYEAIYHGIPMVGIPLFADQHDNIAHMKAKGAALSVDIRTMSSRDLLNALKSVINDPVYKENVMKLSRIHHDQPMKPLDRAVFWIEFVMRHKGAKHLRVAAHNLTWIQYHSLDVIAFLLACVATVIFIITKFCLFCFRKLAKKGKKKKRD
Chain of UGT1A9 (O60656 26-530): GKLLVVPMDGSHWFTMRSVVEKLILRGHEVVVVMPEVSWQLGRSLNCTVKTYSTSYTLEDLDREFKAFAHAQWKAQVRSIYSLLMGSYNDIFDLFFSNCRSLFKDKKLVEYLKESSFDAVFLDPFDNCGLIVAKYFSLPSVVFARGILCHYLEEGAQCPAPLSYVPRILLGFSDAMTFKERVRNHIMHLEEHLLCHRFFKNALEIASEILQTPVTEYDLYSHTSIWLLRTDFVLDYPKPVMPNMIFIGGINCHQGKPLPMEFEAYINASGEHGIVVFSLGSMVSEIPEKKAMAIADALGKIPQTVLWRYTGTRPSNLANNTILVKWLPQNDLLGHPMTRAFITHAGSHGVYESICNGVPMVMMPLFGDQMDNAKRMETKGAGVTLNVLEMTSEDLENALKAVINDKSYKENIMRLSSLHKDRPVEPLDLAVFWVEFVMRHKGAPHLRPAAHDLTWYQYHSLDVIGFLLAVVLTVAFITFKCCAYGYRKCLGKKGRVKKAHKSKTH
Chain of UGT1A6 (P19224 27-532): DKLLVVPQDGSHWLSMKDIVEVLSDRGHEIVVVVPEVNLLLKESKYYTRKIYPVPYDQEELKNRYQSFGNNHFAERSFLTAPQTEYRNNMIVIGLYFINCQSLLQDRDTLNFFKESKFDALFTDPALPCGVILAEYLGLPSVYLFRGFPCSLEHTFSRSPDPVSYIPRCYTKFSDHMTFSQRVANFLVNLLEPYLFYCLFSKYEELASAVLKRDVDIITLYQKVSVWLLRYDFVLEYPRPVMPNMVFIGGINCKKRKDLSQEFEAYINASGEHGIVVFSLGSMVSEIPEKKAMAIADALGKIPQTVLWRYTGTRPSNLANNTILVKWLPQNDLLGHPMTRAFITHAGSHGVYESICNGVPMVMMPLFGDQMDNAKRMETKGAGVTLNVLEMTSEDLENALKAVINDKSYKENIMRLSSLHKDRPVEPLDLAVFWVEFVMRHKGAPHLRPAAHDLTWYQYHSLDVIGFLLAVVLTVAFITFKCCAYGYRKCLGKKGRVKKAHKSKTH
Chain of UGT1A4 (P22310 29-534): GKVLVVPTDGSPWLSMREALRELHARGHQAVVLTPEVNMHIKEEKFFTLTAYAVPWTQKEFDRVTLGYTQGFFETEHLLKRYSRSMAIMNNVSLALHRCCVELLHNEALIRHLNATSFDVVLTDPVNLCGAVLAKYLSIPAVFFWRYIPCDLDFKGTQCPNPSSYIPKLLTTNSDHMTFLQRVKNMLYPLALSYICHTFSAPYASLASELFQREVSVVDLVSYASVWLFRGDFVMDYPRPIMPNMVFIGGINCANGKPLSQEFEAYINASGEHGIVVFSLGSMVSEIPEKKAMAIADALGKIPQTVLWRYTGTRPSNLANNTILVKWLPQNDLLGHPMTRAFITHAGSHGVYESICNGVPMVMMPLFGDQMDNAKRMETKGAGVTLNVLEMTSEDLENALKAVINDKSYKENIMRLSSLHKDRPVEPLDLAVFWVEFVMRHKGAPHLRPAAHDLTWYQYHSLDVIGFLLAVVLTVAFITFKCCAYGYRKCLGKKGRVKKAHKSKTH

CC1=NN(c2ccc(C)c(C)c2)C(=O)/C1=N\Nc1cccc(-c2cccc(C(=O)O)c2)c1O.NCCO.NCCO [Eltrombopag olamine, 3′-{(2Z)-2-[1-(3,4-dimethylphenyl)-3-methyl-5-oxo-1,5-dihydro-4H-pyrazol-4-ylidene]hydrazino}-2′-hydroxy-3-biphenylcarboxylic acid-2-aminoethanol (1:2)]
solubility in water (Solubility): sparingly soluble
solubility in aqueous buffer (Solubility; pH range of 1 to 7.4): practically insoluble

CC1=NN(c2ccc(C)c(C)c2)C(=O)/C1=N\Nc1cccc(-c2cccc(C(=O)O)c2)c1O [eltrombopag, 3′-[(2Z)-[1-(3,4-dimethylphenyl)-1,5-dihydro-3-methyl-5-oxo-4H-pyrazol-4-ylidene]hydrazino]-2′-hydroxy-[1,1′-biphenyl]-3-carboxylic acid]
dose found in the urine ([1]; % of dose): 31%
excretion via feces ([1]; % of dose): 59%
unchanged eltrombopag in feces ([1]; % of dose): approximately 20%
extent of metabolism ([1]; cleavage, oxidation, conjugation): extensively metabolized
share of plasma radiocarbon AUC0-∞ ([1]; human radiolabel study): approximately 64%
renal excretion ([1]; human, in vivo): not significantly renally excreted
unchanged eltrombopag in urine ([1]; human, in vivo): not detectable
time of peak concentration after oral administration ([1]; human, in vivo, po): 2 to 6 h
half-life ([1]; human, ITP patients): 26 to 35 h
half-life ([1]; human, healthy subjects): 21 to 32 h
concentration in blood cells as % of plasma concentrations ([1]; radiolabel study): 50-79%
oral absorption of drug-related material ([1]; single 75 mg solution dose, from urinary excretion and fecal biotransformation products): at least 52%
decrease of Cmax with food [2]: 65%
decrease of plasma AUC0-∞ with food [2]: approximately 59%
plasma exposure higher than in non-Asian subjects ([3]; East Asian subjects with ITP): approximately 70%
systemic exposure higher ([3]; healthy African-American subjects): approximately 40%
apparent clearance greater in males than females ([3]; population PK model, adjusted for body weight): 27%
inhibition of OATP1B1 (OATP1B1 [4]): inhibitor
inhibition of UGT1A1 (UGT1A1 [5]): inhibitor
inhibition of UGT1A3 (UGT1A3 [6]): inhibitor
inhibition of UGT1A4 (UGT1A4): inhibitor
inhibition of UGT1A6 (UGT1A6): inhibitor
inhibition of UGT1A9 (UGT1A9): inhibitor
inhibition of UGT2B15 (UGT2B15): inhibitor
inhibition of UGT2B7 (UGT2B7): inhibitor
inhibition of CYP2C8 (CYP2C8 [7]): inhibitor
inhibition of CYP2C9 (CYP2C9): inhibitor
role of CYP1A2 in oxidative metabolism (CYP1A2): responsible; also recorded: involved
role of CYP2C8 in oxidative metabolism (CYP2C8 [8]): responsible; also recorded: involved
role of UGT1A1 in glucuronidation (UGT1A1 [9]): responsible
role of UGT1A3 in glucuronidation (UGT1A3 [10]): responsible
plasma protein binding (human plasma proteins): highly bound to plasma proteins
bound to human plasma proteins (human plasma proteins; in vitro): > 99%
substrate for p-glycoprotein (Pgp) (p-glycoprotein (Pgp)): not a substrate
substrate for OATP1B1 (OATP1B1 [11]): not a substrate
early embryonic development findings (female rats): Increased pre- and post-implantation loss and reduced fetal weight
plasma concentrations in pups versus dose (pregnant rats (F0); 0.8 and 2 times human clinical exposure (AUC), drug given to F0 dams): increased with dose
presence in plasma of offspring (F1) (pregnant rats (F0); after administration to F0 dams): detected
effects on maternal reproductive function or development of offspring (F1) (pregnant rats (F0); doses up to 2 times human clinical exposure (AUC)): no adverse effects
platelet production (rats [12]): does not stimulate platelet production
platelet production (mice [13]): does not stimulate platelet production
platelet production (dogs [14]): does not stimulate platelet production
mutagenicity/clastogenicity (rats [15]): not mutagenic or clastogenic
mutagenicity/clastogenicity (rats [16]): not mutagenic or clastogenic
mouse lymphoma assay result (mouse lymphoma; in vitro): marginally positive
increase in mutation frequency (mouse lymphoma; in vitro mouse lymphoma assay): < 3 fold
female fertility (rats [17]; doses up to 20 mg/kg/day (2 times human clinical exposure, AUC)): did not affect female fertility
male fertility (rats [17]; doses up to 40 mg/kg/day, highest dose tested (5 times human clinical exposure, AUC)): did not affect male fertility
photoclastogenicity in vitro [18]: photoclastogenic
phototoxicity in vitro [18]: phototoxic
drug concentrations at which photoclastogenic effects were observed ([18]; cytotoxic concentrations, UV 30 MED): ≥ 15000 ng/mL
photoclastogenicity in vitro at lower UV exposure ([18]; up to 58.4 mcg/mL, UV 15 MED): No evidence of in vitro photoclastogenicity
in vivo cutaneous phototoxicity (mice [19]): no evidence
liver finding (rabbits): hepatocellular hypertrophy
embryofetal findings (pregnant rats): Decreased fetal weights and a slight increase in the presence of cervical ribs
major structural malformations (pregnant rats): no evidence of major structural malformations
fetotoxicity, embryolethality, or teratogenicity (pregnant rabbits): no evidence of fetotoxicity, embryolethality, or teratogenicity
photo-ocular toxicity (rats [20]): no evidence
photo-ocular toxicity (mice [21]): no evidence
liver finding (mice [22]): hepatocellular hypertrophy
renal tubular effects after 13 weeks (mice [22]): No similar effects were observed
renal tubular toxicity (mice [22]): Renal tubular toxicity was observed
duration of dosing after which cataracts were observed (mice [22]; 6 weeks): 6 weeks
duration of dosing after which cataracts were observed (mice [22]; 13 weeks): 13 weeks
liver finding (rats [23]): hepatocellular hypertrophy
liver finding (vacuolation) (rats [23]): hepatocellular vacuolation
duration of dosing after which cataracts were observed (rats [23]; 28 weeks): 28 weeks
duration of dosing after which cataracts were observed (rats [23]; 39 weeks): 39 weeks
cataracts (dogs [24]): Cataracts were not observed
liver finding (dogs [24]): hepatocellular hypertrophy
renal tubular toxicity (dogs [24]): Renal tubular toxicity was not observed
mutagenicity/clastogenicity (bacterial): not mutagenic or clastogenic
exposure at the lowest dose relative to human clinical exposure based on AUC (mice [25]): 1.4 times

COc1c(N2C[C@@H]3CCCN[C@@H]3C2)c(F)cc2c(=O)c(C(=O)O)cn(C3CC3)c12 [moxifloxacin]
QTc effect of positive control (healthy adult subjects): significant QTc prolongation

From patent publication US20140142155A1, “METHOD OF TREATING THROMBOCYTOPENIA” (GlaxoSmithKline LLC, priority 2008, published 2014)
